Reference: PMC11088557 (Clinical Drug Investigation, 2024)
Where “and” joins values, the source holds several entries; their conditions need not be identical. Identical values can stand only once.

Assays:
[1] = combination vs MCC alone
CYP2C19 = conditions: in vitro study; cited from earlier work
[2] = viloxazine ER 900 mg qd, steady state
[3] = cited from earlier work
[4] = cited from earlier work; remark: listed apart in the source
CYP3A4 = conditions: cited from earlier work
CYP2C9 = conditions: in vitro study; cited from earlier work
CYP1A2 = conditions: cited from earlier work
CYP2C8 = conditions: in vitro study; cited from earlier work
[5] = viloxazine ER 900 mg/day from Day 3; Day 4; p values > 0.05
CYP2D6 = conditions: cited from earlier work
CYP2B6 = conditions: published in vitro study; cited from earlier work

Compound	prolongation of median Tmax with viloxazine ER vs MCC alone [1]	in vitro inhibition of CYP2C19 (CYP2C19)	AUC24 higher in CYP2D6 PMs than EMs [2]	Cmax higher in CYP2D6 PMs than EMs [2]	Cmin higher in CYP2D6 PMs than EMs [2]	5-hydoxyviloxazine metabolites, share of the metabolized fraction of the drug [3]	dose excreted unchanged [3]	change in Cmax when coadministered with paroxetine [4]	increase in AUC when coadministered with paroxetine [4]	ki (CYP3A4; in vitro, [midazolam])	in vitro inhibition of CYP3A4/5 (CYP3A4; published in vitro study)	in vitro inhibition of CYP2C9 (CYP2C9)	ki (CYP1A2; in vitro, [caffeine])	in vitro inhibition of CYP1A2 (CYP1A2; published in vitro study)	in vitro inhibition of CYP2C8 (CYP2C8)	attainment of steady state [5]	ki (CYP2D6; in vitro, [dextromethorphan])	in vitro inhibition of CYP2D6 (CYP2D6; published in vitro study)	in vitro inhibition of CYP2B6 (CYP2B6)
COc1ccc2c(c1)[C@]13CCCC[C@@H]1[C@H](C2)N(C)CC3 [Dextromethorphan, dextromethorphan]	1 h	–	–	–	–	–	–	–	–	–	–	–	–	–	–	–	–	–	–
CCOc1ccccc1OCC1CNCCO1 (stereo not shown) [viloxazine]	–	no meaningful inhibition	26% and 25%	21%	33%	about 50%	approximately 22%	no changes	< 35%	26.8 µg/mL	weak inhibitor	no meaningful inhibition	0.124 µg/mL	strong, reversible inhibitor	no meaningful inhibition	second day of dosing	12.7 µg/mL	weak inhibitor	weak inhibitor
